Experimental data as given in publication PMC11284788, “NN1213 – A Potent, Long-Acting, and Selective Analog of Human Amylin” (Journal of Medicinal Chemistry, 2024).
Read-outs that look alike come from different tables or passages of the source. Numbered stars: 1 amine (or outer) side, 2 acyl side, 3 side chain; on linkers, the order of the positions; unused ones are H or OH. Bridge positions count the residues as written; N and C are the ends. Side chains are listed from the residue outwards. Peptide text beside a SMILES is read from it. * marks the point of attachment. C20 diacid = O=C(O)CCCCCCCCCCCCCCCCCCC(=O)*; γGlu = O=C(O)[C@H](CCC(=O)[*:2])N[*:1]

Tests used:
[1] = target: T1, rat AMY3R (Rattus norvegicus, UniProt P32214+Q9JJ73); assay: cAMP FlashPlate assay, rat AMY3R; format: cell-based; details: ratio of cAMP EC50 values
T1 construct: expressed in transfected cells; host or cells: BHK tk-ts 13, transient co-transfection (FuGENE 6)
T1 sequence (P32214 25-479 isoform P32214-2 limits assumed): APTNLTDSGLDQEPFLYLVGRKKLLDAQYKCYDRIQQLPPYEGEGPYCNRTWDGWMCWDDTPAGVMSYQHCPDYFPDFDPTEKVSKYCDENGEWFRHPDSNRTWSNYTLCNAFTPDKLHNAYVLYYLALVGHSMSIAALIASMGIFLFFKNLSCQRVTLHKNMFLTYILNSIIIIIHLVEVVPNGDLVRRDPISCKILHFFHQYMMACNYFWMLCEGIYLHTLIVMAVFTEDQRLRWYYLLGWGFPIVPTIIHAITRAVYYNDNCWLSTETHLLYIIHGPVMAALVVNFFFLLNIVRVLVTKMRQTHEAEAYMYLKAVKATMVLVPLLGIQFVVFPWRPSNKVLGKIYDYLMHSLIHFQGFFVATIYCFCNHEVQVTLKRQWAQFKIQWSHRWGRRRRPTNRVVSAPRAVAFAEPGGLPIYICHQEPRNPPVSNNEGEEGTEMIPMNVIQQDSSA
T1 sequence (Q9JJ73 23-147 partner): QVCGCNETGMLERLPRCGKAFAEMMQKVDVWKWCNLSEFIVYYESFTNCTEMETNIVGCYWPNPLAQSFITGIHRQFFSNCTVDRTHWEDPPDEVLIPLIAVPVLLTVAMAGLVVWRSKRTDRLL

[2] = target: T2, rCTR (Rattus norvegicus, UniProt P32214); assay: scintillation proximity binding assay, rCTR membranes
T2 construct: expressed in transfected cells; host or cells: BHK tk-ts 13, transient (FuGENE 6)
T2 sequence (P32214 25-479 isoform P32214-2 limits assumed): T1 sequence (P32214 25-479 isoform P32214-2 limits assumed)
Protocol: The apparent binding affinities were determined using a scintillation proximity assay with beads from PerkinElmer and cell membranes containing the AMY3R or CTRs. […] Membranes were harvested and membranes were prepared and kept at −80 °C until use. The assay was performed in a 384-well Optiplate (PerkinElmer). Membranes were mixed with scintillation proximity assay beads in a 1:1 ratio. […] Samples were analyzed on a TopCounter (Packard). The IC50 values were calculated using GraphPad Prism. See Supporting Information S7: SAR Screening Assay Methods (Binding Assays (Human and Rat)) for more information.
Binding Assays (Human and Rat). Brief descriptions of the methods used to determine binding affinities for SAR analysis are described below. Curves and IC50 values were plotted and calculated in GraphPad Prism using nonlinear regression (one site binding competition analysis), with pIC50 values […]
values were used to calculate the binding affinity ratios in order to express the selectivity of compounds for the AMY3R versus the CTR.
CTR Binding Assay. The binding assay was performed using scintillation proximity assay (SPA) beads (RPNQ0001) from PerkinElmer and cell membranes containing either the hCTR or rCTR. BHK […]
Membranes were prepared in the following way: the cells were rinsed with PBS and incubated with Versene for approximately 5 min before harvesting. The cells were flushed with PBS and the cell-suspension was centrifuged for 5 min at 1000 rpm. Cells were homogenized (Ultra Turrax) in a buffer […]
containing 20 mM Na-HEPES and 0.1 mM EDTA (pH 7.4, buffer 2). The resulting pellet was re-suspended in buffer 2 and protein concentration was measured (BCA protein assay, Pierce). The homogenate was kept cold during the whole procedure. The membranes were stored at –80 °C until […]
The binding assay was performed in a 384-well Optiplate (PerkinElmer) in a total volume of 40 μL.
Membranes were mixed with SPA beads in a 1:1 ratio. […]
mg/well. Test compounds were dissolved in DMSO and further diluted in assay buffer (50 mM HEPES, pH 7.4, 1 mM CaCl2, 5 mM MgCl2, 0.1% ovalbumin, and 0.02% Tween-20).
Calcitonin (NEX422 PerkinElmer) was dissolved in assay buffer and added to the Optiplate at a final […]
prior to centrifugation (1500 rpm, 10 min). Samples were analyzed on TopCounter (Packard).

[3] = SPA binding assay, Tables S13 and S15

Question: How did the “ratio rCTR/rAMY3R” value [1] turn out when `CC[C@H](C)[C@H](NC(=O)[C@H](C)NC(=O)CNC(=O)[C@H](Cc1ccccc1)NC(=O)[C@H](CC(N)=O)NC(=O)[C@@H]1CCCN1C(=O)[C@H](CO)NC(=O)[C@H](CO)NC(=O)[C@H](Cc1c[nH]cn1)NC(=O)[C@H](CCCNC(=N)N)NC(=O)[C@H](CC(C)C)NC(=O)[C@H](Cc1ccccc1)NC(=O)[C@H](CC(=O)O)NC(=O)[C@H](C)NC(=O)[C@H](CC(C)C)NC(=O)[C@H](CCCNC(=N)N)NC(=O)[C@H](CCC(N)=O)NC(=O)[C@@H](NC(=O)[C@H](C)NC(=O)[C@@H]1CSSC[C@H](NC(=O)[C@@H](N)CCCCNC(=O)CC[C@H](NC(=O)CC[C@H](NC(=O)CCCCCCCCCCCCCCCCCCC(=O)O)C(=O)O)C(=O)O)C(=O)N[C@@H](CC(N)=O)C(=O)N[C@@H]([C@@H](C)O)C(=O)N[C@@H](C)C(=O)N[C@@H]([C@@H](C)O)C(=O)N1)[C@@H](C)O)C(=O)N1CCC[C@H]1C(=O)N[C@@H](CO)C(=O)N[C@@H](CO)C(=O)N[C@H](C(=O)N[C@@H](CC(N)=O)C(=O)N[C@H](C(=O)NCC(=O)N[C@@H](CO)C(=O)N[C@@H](CC(=O)O)C(=O)N[C@H](C(=O)N[C@@H](Cc1ccc(O)cc1)C(N)=O)[C@@H](C)O)C(C)C)[C@@H](C)O` [Peptide 6] (H-K([γGlu-γGlu-C20 diacid])CNTATCATQRLADFLRHSSPNFGAIPSSTNVGSDTY-NH2; disulfide 2-7) was run?
Answer: 1338

Question: `CC[C@H](C)[C@H](NC(=O)[C@H](C)NC(=O)CNC(=O)[C@H](Cc1ccccc1)NC(=O)[C@H](CC(N)=O)NC(=O)[C@@H]1CCCN1C(=O)[C@H](CO)NC(=O)[C@H](CO)NC(=O)[C@H](Cc1c[nH]cn1)NC(=O)[C@H](CCCNC(=N)N)NC(=O)[C@H](CC(C)C)NC(=O)[C@H](Cc1ccccc1)NC(=O)[C@H](CCC(=O)O)NC(=O)[C@H](C)NC(=O)[C@H](CC(C)C)NC(=O)[C@H](CCCNC(=N)N)NC(=O)[C@H](CCC(N)=O)NC(=O)[C@@H](NC(=O)[C@H](C)NC(=O)[C@@H]1CSSC[C@H](NC(=O)[C@H](CCCCN)NC(=O)CC[C@H](NC(=O)CCCCCCCCCCCCCCCCCCC(=O)O)C(=O)O)C(=O)N[C@@H](CC(N)=O)C(=O)N[C@@H]([C@@H](C)O)C(=O)N[C@@H](C)C(=O)N[C@@H]([C@@H](C)O)C(=O)N1)[C@@H](C)O)C(=O)N1CCC[C@H]1C(=O)N[C@@H](CO)C(=O)N[C@@H](CO)C(=O)N[C@H](C(=O)N[C@@H](CC(N)=O)C(=O)N[C@H](C(=O)NCC(=O)N1CCC[C@H]1C(=O)N[C@@H](CC(N)=O)C(=O)N[C@H](C(=O)N[C@@H](Cc1ccc(O)cc1)C(N)=O)[C@@H](C)O)C(C)C)[C@@H](C)O` [Peptide 12] ({C20 diacid-γGlu}-KCNTATCATQRLAEFLRHSSPNFGAIPSSTNVGPNTY-NH2; disulfide 2-7) was tested. Which “rCTR pIC50” value [2, 3] did it give?
Answer: 8.22

Question: How did the “rCTR pIC50” value [2, 3] turn out when `CC[C@H](C)[C@H](NC(=O)[C@H](C)NC(=O)CNC(=O)[C@H](Cc1ccccc1)NC(=O)[C@H](CC(N)=O)NC(=O)[C@@H]1CCCN1C(=O)[C@H](CO)NC(=O)[C@H](CO)NC(=O)[C@H](Cc1c[nH]cn1)NC(=O)[C@H](CCCNC(=N)N)NC(=O)[C@H](CC(C)C)NC(=O)[C@H](Cc1ccccc1)NC(=O)[C@H](CC(N)=O)NC(=O)[C@H](C)NC(=O)[C@H](CC(C)C)NC(=O)[C@H](CCCNC(=N)N)NC(=O)[C@H](CCC(N)=O)NC(=O)[C@@H](NC(=O)[C@H](C)NC(=O)[C@@H]1CSSC[C@H](NC(=O)[C@H](CCCNC(=N)N)NC(=O)CNC(=O)CC[C@H](NC(=O)CCCCCCCCCCCCCCCCCCC(=O)O)C(=O)O)C(=O)N[C@@H](CC(N)=O)C(=O)N[C@@H]([C@@H](C)O)C(=O)N[C@@H](C)C(=O)N[C@@H]([C@@H](C)O)C(=O)N1)[C@@H](C)O)C(=O)N1CCC[C@H]1C(=O)N[C@@H](CO)C(=O)N[C@@H](CO)C(=O)N[C@H](C(=O)N[C@@H](CC(N)=O)C(=O)N[C@H](C(=O)NCC(=O)N[C@@H](CO)C(=O)N[C@@H](Cc1c[nH]cn1)C(=O)N[C@H](C(=O)N[C@@H](Cc1ccc(O)cc1)C(N)=O)[C@@H](C)O)C(C)C)[C@@H](C)O` [Peptide 19] ({C20 diacid-γGlu}-GRCNTATCATQRLANFLRHSSPNFGAIPSSTNVGSHTY-NH2; disulfide 3-8) was run?
Answer: 7.77

Question: How did the IC50 ([2]; SPA binding assay, Tables S13 and S15, read-out: rCTR pIC50 (converted)) turn out when `CC(C)C[C@H](NC(=O)[C@H](CCCNC(=N)N)NC(=O)[C@H](CCC(N)=O)NC(=O)[C@@H](NC(=O)[C@H](C)NC(=O)[C@@H]1CSSC[C@H](NC(=O)[C@@H](N)CCCCNC(=O)CC[C@H](NC(=O)CC[C@H](NC(=O)CCCCCCCCCCCCCCCCCCC(=O)O)C(=O)O)C(=O)O)C(=O)N[C@@H](CC(N)=O)C(=O)N[C@@H]([C@@H](C)O)C(=O)N[C@@H](C)C(=O)N[C@@H]([C@@H](C)O)C(=O)N1)[C@@H](C)O)C(=O)N[C@@H](C)C(=O)N[C@@H](CC(=O)O)C(=O)N[C@@H](Cc1ccccc1)C(=O)N[C@@H](CC(C)C)C(=O)N[C@@H](CCCNC(=N)N)C(=O)N[C@@H](Cc1c[nH]cn1)C(=O)N[C@@H](CO)C(=O)N[C@@H](CO)C(=O)N1CCC[C@H]1C(=O)N[C@@H](CC(N)=O)C(=O)N[C@@H](Cc1ccccc1)C(=O)NCC(=O)N[C@@H](C)C(=O)N1CCC[C@H]1C(=O)N[C@@H](CC(C)C)C(=O)N[C@@H](CO)C(=O)N[C@@H](CO)C(=O)N[C@H](C(=O)N[C@@H](CC(N)=O)C(=O)N[C@H](C(=O)NCC(=O)N[C@@H](CO)C(=O)N[C@@H](CC(=O)O)C(=O)N[C@H](C(=O)N[C@@H](Cc1ccc(O)cc1)C(N)=O)[C@@H](C)O)C(C)C)[C@@H](C)O` [Peptide 5] (H-K([γGlu-γGlu-C20 diacid])CNTATCATQRLADFLRHSSPNFGAPLSSTNVGSDTY-NH2; disulfide 2-7) was run?
Answer: 105 nM

Question: And the IC50 ([2]; SPA, BHK cell membranes, 125I-Calcitonin 75 pM, 120 min 25 °C, read-out: rCTR IC50)?
Answer: 106 nM

Question: `CC[C@H](C)[C@H](NC(=O)[C@H](C)NC(=O)CNC(=O)[C@H](Cc1ccccc1)NC(=O)[C@H](CC(N)=O)NC(=O)[C@@H]1CCCN1C(=O)[C@H](CO)NC(=O)[C@H](CO)NC(=O)[C@H](Cc1c[nH]cn1)NC(=O)[C@H](CCCNC(=N)N)NC(=O)[C@H](CC(C)C)NC(=O)[C@H](Cc1ccccc1)NC(=O)[C@H](CC(N)=O)NC(=O)[C@H](C)NC(=O)[C@H](CC(C)C)NC(=O)[C@H](CCCNC(=N)N)NC(=O)[C@H](CCC(N)=O)NC(=O)[C@@H](NC(=O)[C@H](C)NC(=O)[C@@H]1CSSC[C@H](NC(=O)[C@H](CCCCN)NC(=O)CC[C@H](NC(=O)CCCCCCCCCCCCCCCCCCC(=O)O)C(=O)O)C(=O)N[C@@H](CC(N)=O)C(=O)N[C@@H]([C@@H](C)O)C(=O)N[C@@H](C)C(=O)N[C@@H]([C@@H](C)O)C(=O)N1)[C@@H](C)O)C(=O)N1CCC[C@H]1C(=O)N[C@@H](CO)C(=O)N[C@@H](CO)C(=O)N[C@H](C(=O)N[C@@H](CC(N)=O)C(=O)N[C@H](C(=O)NCC(=O)N[C@@H](CCCNC(=N)N)C(=O)N[C@@H](CC(N)=O)C(=O)N[C@H](C(=O)N[C@@H](Cc1ccc(O)cc1)C(N)=O)[C@@H](C)O)C(C)C)[C@@H](C)O` [Peptide 16] was tested. Which “rCTR pIC50” value [2, 3] did it give?
Answer: 7.02
